In series [1] the target is T1, P-gp (MDR1) (Homo sapiens (Human), UniProt P08183). In words: MDR1 efflux ratio in MDR1 transfected LLC-PK1 cells. The conditions noted are these: for MDR1 efflux ratio: Papp(B−A)/Papp(A−B), MDR1 transfected LLC-PK1 cells, 1 μM; for efflux ratio at 2 h, 1 μM: pig, LLC-PK1.
Description: (§4) Both LLC-PK1 and MDR1 transfected LLC-PK1 cells were cultured and plated according to manufacturer's recommendations with the exception that the passage media contained only 2% fetal bovine serum to extend passage time out to seven days.
(§5) Both positive and negative controls were used to assess functionality of P-gp or BCRP efflux in the assays. […] Final organic concentration in the assay was 1%. All dosing solutions contained 10 μM lucifer yellow to monitor LLC-PK1 or MDCKII cell monolayer integrity.
(§6) For the apical to basolateral determination (A to B), 75 μL of the test article in transport buffer were added to the apical side of the individual transwells and 250 μL of basolateral media, without compound or lucifer yellow, were added to each well. For the basolateral to apical determination (B to A), 250 μL of test article in transport buffer were added to each well and 75 μL transport buffer, without compound or lucifer yellow, were added to each transwell. All tests were performed in triplicate, and each compound was tested for both apical to basolateral and basolateral to apical transport. The plates were incubated for 2 hours on a Lab-Line Instruments Titer Orbital Shaker (VWR, West Chester, Pa.) at 50 rpm and 37° C. with 5% CO2. All culture plates were removed from the incubator and 50 μL of media were removed from the apical and basolateral portion of each well and added to 150 μL of 1 μM labetalol in 2:1 acetonitrile (acetonitrile): H2O, v/v.
(§7) These values were accepted when found to be below 2% for apical to basolateral and 5% basolateral to apical flux across the MDR1-transfected LLC-PK1 or BCRP-transfected MDCKII cell monolayers. The plates were sealed and the contents of each well analyzed by LC-MS/MS. The compound concentrations were determined from the ratio of the peak areas of the compound to the internal standard (labetalol) in comparison to the dosing solution.
(§8) The LC-MS/MS system was comprised of an HTS-PAL autosampler (Leap Technologies, Carrboro, N.C.), an HP1200 HPLC (Agilent, Palo Alto, Calif.), and a MDS Sciex 4000 Q Trap system (Applied Biosystems, Foster City, Calif.). […] The total run time, including re-equilibration, for a single injection was 1.2 minutes. Mass spectrometric detection of the analytes was accomplished using the ion spray positive mode.
(§9) An efflux ratio is calculated from the mean apical to basolateral (A-B) Papp data and basolateral to apical (B-A) Papp data: Efflux ratio=Papp(B−A)/Papp(A−B)
Series [2] has as its target full-length FLAG-tagged B-Raf(V600E) (Homo sapiens (Human), UniProt P15056, V600E). As to the kind of experiment: BRAF V600E enzyme assay (TR-FRET competitive displacement). The settings on record: averaged IC50; 60 min, ambient temperature. It counts as binding. The text has this: (§1) A competitive displacement assay was configured for B-Raf that monitors the amount of a fluorescently-tagged “tracer” bound to B-Raf via TR-FRET from an anti-tag Eu-labeled antibody also bound to B-Raf.
(§2) [formula] • where: • Xmax Average Uninhibited Controls • Xm Average Background
(§3) A 4-parameter logistic model was the fit to the POC data for each compound.
In general terms: TR-FRET usually uses a lanthanide donor and a delayed reading to cut background.

The target in series [3] is T2, BCRP (Homo sapiens (Human), UniProt Q9UNQ0). In words: BCRP efflux ratio in BCRP transfected MDCKII cells. The conditions noted are these: for BCRP efflux ratio: Papp(B−A)/Papp(A−B), BCRP transfected MDCKII cells, 1 μM; for efflux ratio at 2 h, 1 μM: dog.
T2 sequence (Q9UNQ0 whole entry, species assumed): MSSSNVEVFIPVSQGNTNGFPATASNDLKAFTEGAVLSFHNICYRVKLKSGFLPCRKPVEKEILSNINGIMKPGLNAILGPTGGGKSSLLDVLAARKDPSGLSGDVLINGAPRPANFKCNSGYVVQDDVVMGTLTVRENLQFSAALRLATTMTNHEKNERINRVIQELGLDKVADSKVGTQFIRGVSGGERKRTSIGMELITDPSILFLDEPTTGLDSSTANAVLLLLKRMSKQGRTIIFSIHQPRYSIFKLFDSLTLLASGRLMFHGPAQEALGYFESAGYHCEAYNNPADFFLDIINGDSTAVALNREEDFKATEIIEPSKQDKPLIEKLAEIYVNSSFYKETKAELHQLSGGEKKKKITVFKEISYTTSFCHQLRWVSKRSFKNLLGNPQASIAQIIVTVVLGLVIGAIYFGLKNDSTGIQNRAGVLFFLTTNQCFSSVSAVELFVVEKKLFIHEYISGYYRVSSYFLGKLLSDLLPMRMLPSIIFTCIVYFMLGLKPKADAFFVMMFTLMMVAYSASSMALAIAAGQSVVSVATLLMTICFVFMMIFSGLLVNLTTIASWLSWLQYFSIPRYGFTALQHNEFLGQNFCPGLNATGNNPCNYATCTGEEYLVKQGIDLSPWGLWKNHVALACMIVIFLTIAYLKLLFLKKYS
Description: (§10) MDR1 LLC-PK1 and BCRP MDCKII Permeability Assay
(§11) BCRP transfected MDCKII cells were cultured and plated according to manufacturer's recommendations. Assay conditions included with and without the BCRP-specific inhibitor, KO0143, at a concentration of 0.3 μM to ascertain the contribution of BCRP to the efflux value of the test compound.
as §5, §6, §7, §8, §9
Series [4] has as its system LLC-PK1 or MDCKII cell monolayer. In words: MDR1 LLC-PK1 and BCRP MDCKII permeability assay (Papp). The settings on record: Papp; test article 1 μM, 2 hours, 37° C.
Description: as §10, §4, §11, §5, §6, §7, §8
(§12) where Cd, V, t and C0 are the detected concentration (μM), the volume on the dosing side (mL), the incubation time (s) and the initial dosing concentration (μM), respectively. The calculations for Papp were made for each replicate and then averaged.
Series [5] shares this test system.
Description: as §10, §4, §11, §5, §6, §7, §8, §12
A short description of series [6]: PK (free brain-to-free plasma ratio) (mouse). Format: in vivo. The settings on record: male CD-1 mice, oral gavage 10 mg/kg, (B/P)*(Bfu/Pfu). Here is the method: PK (Free Brain-to-Free Plasma Ratio) (Mouse)
The ability of representative compounds to penetrate the BBB in mice was determined by evaluating the unbound brain-to-unbound plasma (also referred to as free brain-to-free plasma) concentration ratio in male CD-1 mice.
Brain samples were stored at −20±5° C. prior to analysis. Concentrations of test compound in mouse brain homogenate were determined by liquid chromatography tandem mass spectrometry (LC-MS/MS) following protein precipitation with acetonitrile. A 12-point calibration curve, ranging from 0.5 to 10,000 ng/mL, was prepared in duplicate. A solution of 400 μg/mL of test compound in dimethyl sulfoxide (DMSO) was serially diluted (3-fold) in 100% DMSO, and then 2.5 μL of each standard solution was added to 100 μL of naïve male CD-1 mice brain homogenate. To mimic the extraction in the standard curve, 2.5 μL of DMSO was added to all test samples. […]
Brain-to-plasma ratios were calculated using the concentration of compound measured in the brain divided by the concentration of compound measured in the plasma. […] Free brain-to-free plasma ratios were calculated by multiplying the brain-to-plasma ratio by the in vitro brain homogenate free fraction divided by the in vitro plasma free fraction using the following equation: (B/P)*(Bfu/Pfu).

Series [7] can be described thus: MDR1 LLC-PK1 and BCRP MDCKII permeability assay (Papp).
Description: as §10, §4, §11, §5, §6, §7, §8, §12
Another series deals with GST-tagged B-Raf(V600K) (Homo sapiens, UniProt P15056, V600K). In words: BRAF V600K enzyme assay (TR-FRET competitive displacement). It counts as binding. The conditions noted are these: averaged IC50; 60 min, ambient temperature.
Chain of GST-tagged B-Raf(V600K) (P15056 2-766 V600K limits assumed): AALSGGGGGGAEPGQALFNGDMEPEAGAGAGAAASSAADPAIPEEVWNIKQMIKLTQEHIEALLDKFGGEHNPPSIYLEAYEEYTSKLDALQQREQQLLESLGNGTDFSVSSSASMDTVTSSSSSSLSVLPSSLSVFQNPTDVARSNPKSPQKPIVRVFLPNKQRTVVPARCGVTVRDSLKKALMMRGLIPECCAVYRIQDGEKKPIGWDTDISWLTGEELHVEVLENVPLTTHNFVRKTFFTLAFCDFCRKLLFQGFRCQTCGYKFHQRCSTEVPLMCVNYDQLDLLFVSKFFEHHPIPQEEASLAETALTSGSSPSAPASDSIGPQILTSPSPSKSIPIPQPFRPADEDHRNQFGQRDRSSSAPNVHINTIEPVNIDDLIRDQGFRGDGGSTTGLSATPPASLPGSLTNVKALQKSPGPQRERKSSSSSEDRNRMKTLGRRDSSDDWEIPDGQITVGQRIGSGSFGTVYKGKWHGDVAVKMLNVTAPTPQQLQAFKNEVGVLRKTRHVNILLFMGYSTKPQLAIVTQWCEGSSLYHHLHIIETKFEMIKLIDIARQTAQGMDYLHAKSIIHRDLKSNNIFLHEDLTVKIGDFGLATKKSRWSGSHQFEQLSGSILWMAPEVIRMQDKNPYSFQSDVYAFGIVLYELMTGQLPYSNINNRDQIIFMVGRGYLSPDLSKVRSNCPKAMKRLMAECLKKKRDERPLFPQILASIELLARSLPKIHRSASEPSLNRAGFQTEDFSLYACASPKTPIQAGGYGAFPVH
Description: as §1, §2, §3

The test system of series [8] is BCRP. The settings on record: reported by Mittapalli et al.; cited from earlier work.
Series [9] addresses T1, P-gp (MDR1). The conditions noted are these: pig, LLC-PK1, 2 h, 1 μM.
Description: as §4, §5, §6, §7, §8, §9
Series [10] addresses T2, BCRP. The conditions noted are these: dog, 2 h, 1 μM.
Description: as §10, §11, §5, §6, §7, §8, §9

Where two headings read alike, the source gives them in different places.

Chain of full-length FLAG-tagged B-Raf(V600E) (P15056 whole entry V600E): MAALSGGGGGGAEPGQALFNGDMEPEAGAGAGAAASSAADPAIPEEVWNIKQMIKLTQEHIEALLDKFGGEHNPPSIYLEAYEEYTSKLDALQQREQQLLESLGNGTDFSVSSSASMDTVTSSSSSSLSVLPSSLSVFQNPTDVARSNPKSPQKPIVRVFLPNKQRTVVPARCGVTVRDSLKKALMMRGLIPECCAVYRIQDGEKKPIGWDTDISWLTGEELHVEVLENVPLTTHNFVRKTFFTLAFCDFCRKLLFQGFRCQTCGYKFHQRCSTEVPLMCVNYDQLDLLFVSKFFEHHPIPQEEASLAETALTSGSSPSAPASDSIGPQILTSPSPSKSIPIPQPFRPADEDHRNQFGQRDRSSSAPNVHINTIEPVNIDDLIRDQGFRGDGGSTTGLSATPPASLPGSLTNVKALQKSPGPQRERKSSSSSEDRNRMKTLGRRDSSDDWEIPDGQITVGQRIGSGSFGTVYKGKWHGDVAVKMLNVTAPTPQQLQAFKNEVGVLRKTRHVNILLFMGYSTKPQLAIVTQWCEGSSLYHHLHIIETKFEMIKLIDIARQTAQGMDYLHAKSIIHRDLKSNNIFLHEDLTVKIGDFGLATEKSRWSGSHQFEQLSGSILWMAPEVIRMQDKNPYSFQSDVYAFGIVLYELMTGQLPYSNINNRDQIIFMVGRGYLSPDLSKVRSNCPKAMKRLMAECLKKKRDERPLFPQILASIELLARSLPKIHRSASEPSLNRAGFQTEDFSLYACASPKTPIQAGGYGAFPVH
T1 sequence (P08183 whole entry, species assumed): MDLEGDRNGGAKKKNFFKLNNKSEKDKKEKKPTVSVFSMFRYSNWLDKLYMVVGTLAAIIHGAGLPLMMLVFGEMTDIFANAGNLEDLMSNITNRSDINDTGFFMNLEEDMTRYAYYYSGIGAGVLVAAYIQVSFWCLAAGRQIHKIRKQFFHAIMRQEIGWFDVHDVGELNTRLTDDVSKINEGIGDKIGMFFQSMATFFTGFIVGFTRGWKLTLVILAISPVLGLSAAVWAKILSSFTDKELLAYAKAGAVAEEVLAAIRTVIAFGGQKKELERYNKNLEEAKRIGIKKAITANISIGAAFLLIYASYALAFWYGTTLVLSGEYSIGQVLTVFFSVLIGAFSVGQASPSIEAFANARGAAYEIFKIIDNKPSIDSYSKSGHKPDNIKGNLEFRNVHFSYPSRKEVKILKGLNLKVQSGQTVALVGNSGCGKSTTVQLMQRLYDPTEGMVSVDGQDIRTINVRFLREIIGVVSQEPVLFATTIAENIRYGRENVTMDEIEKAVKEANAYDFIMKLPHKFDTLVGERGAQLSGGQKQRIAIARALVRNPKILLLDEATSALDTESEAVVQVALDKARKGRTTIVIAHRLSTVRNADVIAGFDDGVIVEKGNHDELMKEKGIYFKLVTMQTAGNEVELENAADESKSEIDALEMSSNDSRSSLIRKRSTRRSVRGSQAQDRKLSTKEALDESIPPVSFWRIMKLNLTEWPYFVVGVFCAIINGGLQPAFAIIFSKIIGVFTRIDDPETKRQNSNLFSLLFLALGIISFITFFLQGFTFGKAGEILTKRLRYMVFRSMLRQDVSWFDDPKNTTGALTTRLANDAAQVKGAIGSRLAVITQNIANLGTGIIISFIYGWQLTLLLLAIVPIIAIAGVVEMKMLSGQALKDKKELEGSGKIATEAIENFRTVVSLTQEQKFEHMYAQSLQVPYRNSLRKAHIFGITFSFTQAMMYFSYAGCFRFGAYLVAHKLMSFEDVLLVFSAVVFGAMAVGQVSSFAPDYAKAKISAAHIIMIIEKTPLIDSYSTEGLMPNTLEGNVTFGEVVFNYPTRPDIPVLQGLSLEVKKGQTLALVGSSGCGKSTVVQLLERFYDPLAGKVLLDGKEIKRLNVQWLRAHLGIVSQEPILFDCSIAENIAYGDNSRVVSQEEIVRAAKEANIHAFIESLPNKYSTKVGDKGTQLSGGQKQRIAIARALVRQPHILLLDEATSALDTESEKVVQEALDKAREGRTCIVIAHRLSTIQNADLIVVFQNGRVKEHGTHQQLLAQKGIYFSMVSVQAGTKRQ

`Cc1c(Nc2c(F)cnc(NS(=O)(=O)CC3CC3)c2F)ccc2ncn(C)c(=O)c12` [Example 42, 1-cyclopropyl-N-(4-((3,5-dimethyl-4-oxo-3,4-dihydroquinazolin-6-yl)amino)-3,5-difluoropyridin-2-yl) methanesulfonamide]: on P-gp (MDR1) [1], the MDR1 efflux ratio was determined as 5.26. Further, the half-inhibitory concentration (IC50) in [2] amounted to 60.3 nM. For the same compound, on BCRP [3], the BCRP efflux ratio is on record as 23.73. The “Permeability (*10^−6 cm/s)” value in series [4] is listed as 18.35 *10^−6 cm/s.

Turning to `CCCS(=O)(=O)Nc1cc(Cl)cc(Nc2ccc3ncn(C)c(=O)c3c2C)c1Cl` [Example 48, N-(2,5-dichloro-3-((3,5-dimethyl-4-oxo-3,4-dihydroquinazoli-6-yl)amino)phenyl) propane-1-sulfonamide], the “Permeability (*10^−6 cm/s)” value in [5] was 25.83 *10^−6 cm/s.

On to `CCN(C)S(=O)(=O)Nc1ccc(F)c(Nc2ccc3ncn(C)c(=O)c3c2C)c1Cl` [Example 54, N-(2-chloro-3-((3,5-dimethyl-4-oxo-3,4-dihydroquinazolin-6-yl)amino)-4-fluorophenyl)-N-ethyl-N-methylamino-1-sulfonamide], for which the “Permeability (*10^−6 cm/s)” value in [5] was 35.81 *10^−6 cm/s.

For the compound `CCCS(=O)(=O)Nc1ccc(F)c(Oc2ccc3ncn(C)c(=O)c3c2C)c1Cl` [Example 55, N-{2-chloro-3-[(3,5-dimethyl-4-oxo-3,4-dihydroquinazolin-6-yl)oxy]-4-fluorophenyl}propane-1-sulfonamide], the efflux ratio at 2 h, 1 μM turned out to be 1.1 at P-gp (MDR1) [1] and 0.83 on BCRP [3]. In addition, the IC50 worked out at 5.4 nM in series [2] and 3.1 nM at GST-tagged B-Raf(V600K). Further, the Kp,uu (unbound brain-to-unbound plasma ratio) in [6] lay within 0.46 to 0.51. Moreover, the Papp at 2 h, 1 μM in [7] worked out at 23.8 ×10⁻⁶ cm/s.

For the compound `CCCS(=O)(=O)Nc1ncc(F)c(Oc2ccc3ncn(C)c(=O)c3c2C)c1Cl` [Example 63, N-(3-chloro-4-((3,5-dimethyl-4-oxo-3,4-dihydroquinazolin-6-yl)oxy)-5-fluoropyridin-2-yl)propane-1-sulfonamide], the figures for the efflux ratio at 2 h, 1 μM at P-gp (MDR1) [1] and at BCRP [3] were 1.3 and 7.7, respectively. Also, the IC50 in series [2] amounted to 2.8 nM; on GST-tagged B-Raf(V600K), 2.4 nM. For the same compound, in [6], the Kp,uu (unbound brain-to-unbound plasma ratio) was 0.34 to 0.4. The compound also displayed a Papp at 2 h, 1 μM in series [7] of 26.1 ×10⁻⁶ cm/s.

For `CC(C)(C)c1nc(-c2cccc(NS(=O)(=O)c3c(F)cccc3F)c2F)c(-c2ccnc(N)n2)s1` [dabrafenib], in the series on BCRP [8], the BCRP efflux ratio was 21.0.

Take “N-(2-chloro-3-((3,5- dimethyl-4-oxo-3,4- dihydroquinazolin-6- yl)amino)-4- fluorophenyl) benzenesulfonamide [Example 49]”: the MDR1 efflux ratio at P-gp (MDR1) [1] is recorded as 1.24. The compound also registered an IC50 in series [2] of 3.95 nM. Moreover, on BCRP [3], the BCRP efflux ratio was determined as 0.97. For the same compound, the “Permeability (*10^−6 cm/s)” value in series [4] is reported as 30.68 *10^−6 cm/s.

Regarding “N-(2-chloro-3-((3,5- dimethyl-4-oxo-3,4- dihydroquinazolin-6- yl)amino)-4- fluorophenyl) ethanesulfonamide [Example 52]”, on P-gp (MDR1) [1], the MDR1 efflux ratio came to 1.76. The same compound displayed an IC50 in [2] of 226 nM. At BCRP [3], the BCRP efflux ratio stood at 1.28. For the same compound, the “Permeability (*10^−6 cm/s)” value in series [4] is reported as 28.91 *10^−6 cm/s.

For the compound “N-(2-chloro-3-((3,5- dimethyl-4-oxo-3,4- dihydroquinazolin-6- yl)amino)-4- fluorophenyl)-1- cyclopropyl- methanesulfonamide [Example 50]”, the MDR1 efflux ratio on P-gp (MDR1) [1] worked out at 1.54. Further, the IC50 in series [2] stood at 66.1 nM. Moreover, at BCRP [3], the BCRP efflux ratio is given as 1.13. The “Permeability (*10^−6 cm/s)” value in series [4] was 21.88 *10^−6 cm/s.

With “N-(2-chloro-3-((3,5- dimethyl-4-oxo-3,4- dihydroquinazolin-6- yl)amino)-4- fluorophenyl)-2- methylpropane-1- sulfonamide [Example 51]”, on P-gp (MDR1) [1], the MDR1 efflux ratio is reported as 1.64. In series [2], this compound showed an IC50 of 63.4 nM. In addition, at BCRP [3], the BCRP efflux ratio worked out at 1.28. In addition, the “Permeability (*10^−6 cm/s)” value in series [4] is listed as 27.16 *10^−6 cm/s.

Regarding “N-(2-chloro-3-((3,5- dimethyl-4-oxo-3,4- dihydroquinazolin-6- yl)amino)-5- fluorophenyl)-3- fluoropropane-1- sulfonamide [Example 44]”, the MDR1 efflux ratio at P-gp (MDR1) [1] was 1.05. Also, in series [2], the IC50 stood at 6.05 nM. For the same compound, the BCRP efflux ratio on BCRP [3] amounted to 2.84. Moreover, in series [4], the “Permeability (*10^−6 cm/s)” value is on record as 24.2 *10^−6 cm/s.

Take “N-(2-cyano-3-((3,5- dimethyl-4-oxo-3,4- dihydroquinazolin-6- yl)amino)phenyl) propane-1-sulfonamide [Example 53]”: in series [5] (2 h, 1 μM), the “Permeability (*10^−6 cm/s)” value is 27.13 *10^−6 cm/s. In [2], the half-inhibitory concentration (IC50) came to 9.4 nM. The MDR1 efflux ratio on P-gp (MDR1) [9] was 2.6. Further, on BCRP [10], the BCRP efflux ratio is 22.97.

Consider “N-(3-((3,5-dimethyl-4- oxo-3,4- dihydroquinazolin-6- yl)amino)-2-fluoro-5- methylphenyl)propane- 1-sulfonamide [Example 46]”, for which the “Permeability (*10^−6 cm/s)” value in [5] (2 h, 1 μM) is listed as 30.74 *10^−6 cm/s. Besides, in series [2], the IC50 was found to be 148 nM. Also, the MDR1 efflux ratio at P-gp (MDR1) [9] is recorded as 1.43. Besides, the BCRP efflux ratio at BCRP [10] worked out at 1.48.

In the case of “N-(3-chloro-4-((3,5- dimethyl-4-oxo-3,4- dihydroquinazolin-6- yl)amino)-5- fluoropyridin-2- yl)ethanesulfonamide [Example 45]”, the MDR1 efflux ratio at P-gp (MDR1) [1] was 2.47. The IC50 in series [2] was 137 nM. Moreover, the BCRP efflux ratio at BCRP [3] was determined as 11.29. Also, in series [4], the “Permeability (*10^−6 cm/s)” value is 16.56 *10^−6 cm/s.

As for “N-(3-chloro-4-((3,5- dimethyl-4-oxo-3,4- dihydroquinazolin-6- yl)amino)-5- fluoropyridin-2-yl)-1- cyclopropyl- methanesulfonamide [Example 47]”, the MDR1 efflux ratio at P-gp (MDR1) [1] was found to be 1.84. Also, the IC50 in series [2] was 41.7 nM. Also, the BCRP efflux ratio on BCRP [3] is 7.93. Further, the “Permeability (*10^−6 cm/s)” value in series [4] is on record as 25.7 *10^−6 cm/s.

As for “N-(4-((3,5-dimethyl-4- oxo-3,4- dihydroquinazolin-6- yl)amino)-3,5- difluoropyridin-2- yl)ethanesulfonamide [Example 43]”, on P-gp (MDR1) [1], the MDR1 efflux ratio was 5.24. In [2], this compound registered a 50% inhibitory concentration (IC50) of 260 nM. The BCRP efflux ratio on BCRP [3] is on record as 26.02. Further, the “Permeability (*10^−6 cm/s)” value in [4] is 8.75 *10^−6 cm/s.

As a reminder, the IC50 is the concentration that inhibits the measured activity by half. The low end stands for inhibition by little substance, the high end for a need for much substance. The efflux ratio is the permeability from basolateral to apical divided by that in the opposite direction, in the common usage. In general, Papp refers to a coefficient for how fast a substance crosses the barrier. A high value points to ready permeation.

Source of the values: patent US11634409B2, “Compounds for the treatment of BRAF-associated diseases and disorders” (Array BioPharma Inc., priority 2019, dated 2023).
